The text below walks through data of patent US20240209028A1, “CNP COMPOUNDS” (priority 2022, published 2024).

Starred links: 1 amine or outer side, 2 acyl side, 3 side chain; linkers in the order of their positions; H or OH if unused. Positions of bridges follow the written chain, without caps; N, C: chain ends. Residues, ends and D or L forms follow the SMILES beside them. *: point of attachment. C18 diacid = O=C(O)CCCCCCCCCCCCCCCCC(=O)*; γGlu = O=C(O)[C@H](CCC(=O)[*:2])N[*:1]; AEEA = NCCOCCOCC(=O)O

The target of this experiment is T1, human natriuretic peptide receptor 2 (hNPR2) (Homo sapiens, UniProt P20594).
T1 construct: expressed in transfected cells; host or cells: HEK293 (ATCC CRL-1573), clone 35, co-transfected with pGloSensor-42F
T1 sequence (P20594 23-1047): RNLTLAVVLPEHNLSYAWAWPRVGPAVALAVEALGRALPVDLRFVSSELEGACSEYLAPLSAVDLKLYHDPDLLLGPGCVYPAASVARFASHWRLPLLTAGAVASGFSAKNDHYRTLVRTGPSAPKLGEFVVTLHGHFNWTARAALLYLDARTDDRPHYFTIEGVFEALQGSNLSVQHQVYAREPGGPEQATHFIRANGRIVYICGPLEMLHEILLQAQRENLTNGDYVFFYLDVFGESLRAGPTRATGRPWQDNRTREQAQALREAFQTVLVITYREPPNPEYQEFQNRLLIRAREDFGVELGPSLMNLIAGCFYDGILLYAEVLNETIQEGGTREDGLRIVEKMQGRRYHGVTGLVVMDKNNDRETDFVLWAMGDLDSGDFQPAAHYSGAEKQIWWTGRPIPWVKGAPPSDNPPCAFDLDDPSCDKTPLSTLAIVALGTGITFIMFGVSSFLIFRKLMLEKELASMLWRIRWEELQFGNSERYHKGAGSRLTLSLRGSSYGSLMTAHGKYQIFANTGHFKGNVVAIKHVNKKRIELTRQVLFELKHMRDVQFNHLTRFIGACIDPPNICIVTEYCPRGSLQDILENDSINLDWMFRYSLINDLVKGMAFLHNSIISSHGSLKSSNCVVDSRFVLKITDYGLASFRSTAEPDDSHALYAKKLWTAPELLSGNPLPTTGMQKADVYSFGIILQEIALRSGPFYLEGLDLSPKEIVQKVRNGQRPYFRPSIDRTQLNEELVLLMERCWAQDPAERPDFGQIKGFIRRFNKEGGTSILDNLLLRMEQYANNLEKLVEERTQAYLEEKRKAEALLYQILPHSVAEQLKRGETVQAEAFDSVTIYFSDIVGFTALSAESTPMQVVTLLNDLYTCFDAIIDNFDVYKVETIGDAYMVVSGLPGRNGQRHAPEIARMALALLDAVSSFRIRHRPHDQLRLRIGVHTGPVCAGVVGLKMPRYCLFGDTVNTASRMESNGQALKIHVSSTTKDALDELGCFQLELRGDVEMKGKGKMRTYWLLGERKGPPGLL
As to the kind of experiment: In vitro hNPR2 activity assay (cGMP GloSensor reporter, HEK293). It is filed as cell-based. The note with it: potency relative to CNP22 (0065). Summed up: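 Potency is the EC50 from a four-parameter logistic fit, also expressed relative to the in-plate CNP22 control (×100), with at least two replicates. Compounds (ten concentrations, […], HSA-free diluent with 1% OVA, 0.01% Tween20) were incubated 30 min at 37 °C on HEK293 cells co-expressing hNPR2 and a GloSensor cGMP luciferase. Luminescence detected with Bright-Glo.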

In the case of `CC[C@H](C)[C@@H]1NC(=O)[C@H](CCCNC(=N)N)NC(=O)[C@H](CC(=O)O)NC(=O)[C@H](CC(C)C)NC(=O)[C@@H]2CCCN2C(=O)[C@H](CC(C)C)NC(=O)CNC(=O)[C@H](Cc2ccccc2)NC(=O)[C@@H](NC(=O)CNC(=O)[C@H](CO)NC(=O)[C@H](CO)NC(=O)[C@H](CC(C)C)NC(=O)CNC(=O)[C@H](CCCCN)NC(=O)[C@H](CCCCN)NC(=O)[C@H](CCC(N)=O)NC(=O)[C@H](C)NC(=O)CNC(=O)[C@H](CCC(=O)O)NC(=O)[C@H](Cc2ccc(O)cc2)NC(=O)COCCOCCNC(=O)COCCOCCNC(=O)COCCOCCNC(=O)COCCOCCNC(=O)CC[C@H](NC(=O)CCCCCCCCCCCCCCCCC(=O)O)C(=O)O)CSSC[C@@H](C(=O)O)NC(=O)CNC(=O)[C@H](CC(C)C)NC(=O)CNC(=O)[C@H](CO)NC(=O)[C@H](CC(C)C)NC(=O)[C@H](CO)NC(=O)CNC1=O` [compound 1392] ({C18 diacid-γGlu-AEEA-AEEA-AEEA-AEEA}-YEGAQKKGLSSGCFGLPLDRIGSLSGLGC-OH; disulfide 13-29), the “hNPR2 0% HSA. [EC50% rel CNP]” value stood at 29.5%. Next, `CC[C@H](C)[C@@H]1NC(=O)[C@H](CCCNC(=N)N)NC(=O)[C@H](CC(=O)O)NC(=O)[C@H](CC(C)C)NC(=O)[C@@H]2CCCN2C(=O)[C@H](CC(C)C)NC(=O)CNC(=O)[C@H](Cc2ccccc2)NC(=O)[C@@H](NC(=O)CNC(=O)[C@H](CCC(N)=O)NC(=O)[C@H](CO)NC(=O)[C@H](CC(C)C)NC(=O)CNC(=O)[C@H](CCCCN)NC(=O)[C@H](CCCCN)NC(=O)[C@H](CCC(N)=O)NC(=O)[C@H](C)NC(=O)CNC(=O)[C@H](CCCCN)NC(=O)[C@H](Cc2ccc(O)cc2)NC(=O)[C@H](CCCCN)NC(=O)[C@H](CCCNC(=N)N)NC(=O)[C@H](C)NC(=O)[C@H](CCC(N)=O)NC(=O)[C@@H]2CCCN2C(=O)[C@H](Cc2c[nH]cn2)NC(=O)[C@H](CCC(=O)O)NC(=O)[C@H](CCC(N)=O)NC(=O)COCCOCCNC(=O)COCCOCCNC(=O)CC[C@H](NC(=O)CC[C@H](NC(=O)CC[C@H](NC(=O)CC[C@H](NC(=O)CC[C@H](NC(=O)CC[C@H](NC(=O)CCCCCCCCCCCCCCCCC(=O)O)C(=O)O)C(=O)O)C(=O)O)C(=O)O)C(=O)O)C(=O)O)CSSC[C@@H](C(=O)O)NC(=O)CNC(=O)[C@H](CC(C)C)NC(=O)CNC(=O)[C@H](CO)NC(=O)[C@H](CC(C)C)NC(=O)[C@H](CO)NC(=O)CNC1=O` [compound 1402] ({C18 diacid-γGlu-γGlu-γGlu-γGlu-γGlu-γGlu-AEEA-AEEA}-QEHPQARKYKGAQKKGLSQGCFGLPLDRIGSLSGLGC-OH; disulfide 21-37): 57.6%; `CC[C@H](C)[C@@H]1NC(=O)[C@H](CCCNC(=N)N)NC(=O)[C@H](CC(=O)O)NC(=O)[C@H](CC(C)C)NC(=O)[C@@H]2CCCN2C(=O)[C@H](CC(C)C)NC(=O)CNC(=O)[C@H](Cc2ccccc2)NC(=O)[C@@H](NC(=O)CNC(=O)[C@H](CCC(N)=O)NC(=O)[C@H](CO)NC(=O)[C@H](CC(C)C)NC(=O)CNC(=O)[C@H](CCCCN)NC(=O)[C@H](CCCCN)NC(=O)[C@H](CCC(N)=O)NC(=O)[C@H](C)NC(=O)CNC(=O)[C@H](CCCCN)NC(=O)[C@H](Cc2ccc(O)cc2)NC(=O)[C@H](CCCCN)NC(=O)[C@H](CCCNC(=N)N)NC(=O)[C@H](C)NC(=O)[C@H](CCC(N)=O)NC(=O)[C@@H]2CCCN2C(=O)[C@H](Cc2c[nH]cn2)NC(=O)[C@H](CCC(=O)O)NC(=O)[C@H](CCC(N)=O)NC(=O)COCCOCCNC(=O)COCCOCCNC(=O)COCCOCCNC(=O)COCCOCCNC(=O)CC[C@H](NC(=O)CC[C@H](NC(=O)CC[C@H](NC(=O)CC[C@H](NC(=O)CC[C@H](NC(=O)CC[C@H](NC(=O)CCCCCCCCCCCCCCCCC(=O)O)C(=O)O)C(=O)O)C(=O)O)C(=O)O)C(=O)O)C(=O)O)CSSC[C@@H](C(=O)O)NC(=O)CNC(=O)[C@H](CC(C)C)NC(=O)CNC(=O)[C@H](CO)NC(=O)[C@H](CC(C)C)NC(=O)[C@H](CO)NC(=O)CNC1=O` [compound 1404] ({C18 diacid-γGlu-γGlu-γGlu-γGlu-γGlu-γGlu-AEEA-AEEA-AEEA-AEEA}-QEHPQARKYKGAQKKGLSQGCFGLPLDRIGSLSGLGC-OH; disulfide 21-37): 81.3%.

`CC[C@H](C)[C@@H]1NC(=O)[C@H](CCCNC(=N)N)NC(=O)[C@H](CC(=O)O)NC(=O)[C@H](CC(C)C)NC(=O)[C@@H]2CCCN2C(=O)[C@H](CC(C)C)NC(=O)CNC(=O)[C@H](Cc2ccccc2)NC(=O)[C@@H](NC(=O)CNC(=O)[C@H](CCC(N)=O)NC(=O)[C@H](CO)NC(=O)[C@H](CC(C)C)NC(=O)CNC(=O)[C@H](CCCCN)NC(=O)[C@H](CCCCN)NC(=O)[C@H](CCC(N)=O)NC(=O)[C@H](C)NC(=O)CNC(=O)[C@H](CCCCN)NC(=O)[C@H](Cc2ccc(O)cc2)NC(=O)[C@H](CCCCN)NC(=O)[C@H](CCCNC(=N)N)NC(=O)[C@H](C)NC(=O)[C@H](CCC(N)=O)NC(=O)[C@@H]2CCCN2C(=O)[C@H](Cc2c[nH]cn2)NC(=O)[C@H](CCC(=O)O)NC(=O)[C@H](CCC(N)=O)NC(=O)COCCOCCNC(=O)COCCOCCNC(=O)COCCOCCNC(=O)COCCOCCNC(=O)CC[C@H](NC(=O)CC[C@H](NC(=O)CC[C@H](NC(=O)CC[C@H](NC(=O)CC[C@H](NC(=O)CCCCCCCCCCCCCCCCC(=O)O)C(=O)O)C(=O)O)C(=O)O)C(=O)O)C(=O)O)CSSC[C@@H](C(=O)O)NC(=O)CNC(=O)[C@H](CC(C)C)NC(=O)CNC(=O)[C@H](CO)NC(=O)[C@H](CC(C)C)NC(=O)[C@H](CO)NC(=O)CNC1=O` [compound 1406] ({C18 diacid-γGlu-γGlu-γGlu-γGlu-γGlu-AEEA-AEEA-AEEA-AEEA}-QEHPQARKYKGAQKKGLSQGCFGLPLDRIGSLSGLGC-OH; disulfide 21-37): the “hNPR2 0% HSA. [EC50% rel CNP]” value came out at 59.1%. `CC[C@H](C)[C@@H]1NC(=O)[C@H](CCCNC(=N)N)NC(=O)[C@H](CC(=O)O)NC(=O)[C@H](CC(C)C)NC(=O)[C@@H]2CCCN2C(=O)[C@H](CC(C)C)NC(=O)CNC(=O)[C@H](Cc2ccccc2)NC(=O)[C@@H](NC(=O)CNC(=O)[C@H](CCCCN)NC(=O)[C@H](CO)NC(=O)[C@@H](NC(=O)CNC(=O)[C@@H](NC(=O)[C@H](Cc2c[nH]cn2)NC(=O)[C@H](CCC(N)=O)NC(=O)[C@H](C)NC(=O)CNC(=O)[C@H](Cc2c[nH]cn2)NC(=O)[C@H](Cc2ccc(O)cc2)NC(=O)[C@H](CCCCN)NC(=O)[C@H](CCCNC(=N)N)NC(=O)[C@H](C)NC(=O)COCCOCCNC(=O)COCCOCCNC(=O)CC[C@H](NC(=O)CC[C@H](NC(=O)CC[C@H](NC(=O)CCCCCCCCCCCCCCCCC(=O)O)C(=O)O)C(=O)O)C(=O)O)[C@@H](C)O)C(C)C)CSSC[C@@H](C(=O)O)NC(=O)CNC(=O)[C@H](CC(C)C)NC(=O)CNC(=O)[C@H](CO)NC(=O)[C@H](CC(C)C)NC(=O)[C@H](CO)NC(=O)CNC1=O` [compound 1420] ({C18 diacid-γGlu-γGlu-γGlu-AEEA-AEEA}-ARKYHGAQHTGVSKGCFGLPLDRIGSLSGLGC-OH; disulfide 16-32): the “hNPR2 0% HSA. [EC50% rel CNP]” value worked out at 87.5%. As for `CC[C@H](C)[C@@H]1NC(=O)[C@H](CCCNC(=N)N)NC(=O)[C@H](CC(=O)O)NC(=O)[C@H](CC(C)C)NC(=O)[C@@H]2CCCN2C(=O)[C@H](CC(C)C)NC(=O)CNC(=O)[C@H](Cc2ccccc2)NC(=O)[C@@H](NC(=O)CNC(=O)[C@H](CO)NC(=O)[C@H](CO)NC(=O)[C@@H](NC(=O)CNC(=O)[C@H](CCCCN)NC(=O)[C@H](CCCCN)NC(=O)[C@H](CCC(N)=O)NC(=O)[C@H](C)NC(=O)CNC(=O)[C@H](Cc2c[nH]cn2)NC(=O)[C@H](Cc2ccc(O)cc2)NC(=O)[C@H](CCCCN)NC(=O)[C@H](CCCNC(=N)N)NC(=O)[C@H](C)NC(=O)COCCOCCNC(=O)COCCOCCNC(=O)CC[C@H](NC(=O)CC[C@H](NC(=O)CC[C@H](NC(=O)CCCCCCCCCCCCCCCCC(=O)O)C(=O)O)C(=O)O)C(=O)O)C(C)C)CSSC[C@@H](C(=O)O)NC(=O)CNC(=O)[C@H](CC(C)C)NC(=O)CNC(=O)[C@H](CO)NC(=O)[C@H](CC(C)C)NC(=O)[C@H](CO)NC(=O)CNC1=O` [compound 1422] ({C18 diacid-γGlu-γGlu-γGlu-AEEA-AEEA}-ARKYHGAQKKGVSSGCFGLPLDRIGSLSGLGC-OH; disulfide 16-32), the figure is 75.3%.
